Measurements published in PubChem BioAssay (NCI).
Where “and” joins values, the source holds several entries; their conditions need not be identical. Identical values can stand only once.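 Cultured in 96-well plates, cells were exposed to test compound for 48 hours across five concentrations. GI50: concentration for 50% inhibition of growth. TGI is the concentration that stops growth completely.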

How the values were obtained:
Test in all cases: NCI anticancer screen, dose series, 48 h
[1] = test system: SF-268 CNS
[2] = test system: OVCAR-8 ovarian
[3] = test system: DU-145 prostate
[4] = test system: SF-539 CNS
[5] = test system: SW-620 colon
[6] = test system: LOX IMVI melanoma
[7] = test system: SF-295 CNS
[8] = test system: MOLT-4 leukemia
[9] = test system: M14 melanoma
[10] = test system: SNB-75 CNS

SMILES | GI50 [1] | TGI [1] | GI50 [2] | TGI [2] | GI50 [3] | TGI [3] | GI50 [4] | TGI [4] | GI50 [5] | TGI [5] | GI50 [6] | TGI [6] | GI50 [7] | TGI [7] | GI50 [8] | TGI [8] | GI50 [9] | TGI [9] | GI50 [10] | TGI [10]
C=CC[C@@H]1/C=C(\C)C[C@H](C)C[C@H](OC)[C@H]2O[C@@](O)(C(=O)C(=O)N3CCCC[C@H]3C(=O)O[C@H](/C(C)=C/C3CC[C@@H](O)[C@H](OC)C3)[C@H](C)[C@@H](O)CC1=O)[C@H](C)C[C@@H]2OC (stereo not given in full) | 13.8 µM | 27.3 µM | 16 µM | 39.3 µM | 16.1 µM | 30.2 µM | 17.5 µM | 34 µM | 16.5 µM | 32.2 µM | 15 µM | 29.7 µM | 14.6 µM | 31.9 µM | 14.4 µM | 41.6 µM | 14.9 µM | 28.6 µM | 12.3 µM | 25.1 µM
COc1cc(-n2cnc(-c3ccc(Cl)cc3)c2)cc(OC)c1OC | 22.9 µM | 63.2 µM | > 100 µM | > 100 µM | > 100 µM | > 100 µM | 17.1 µM | 34.4 µM | > 100 µM | > 100 µM | 18 µM | 34.3 µM | 17.6 µM | 38.1 µM | 19.2 µM | 39.9 µM | 73 µM | > 100 µM | 16.5 µM | 34.8 µM
OCC1OC(n2cnc3c2NC=NC[C@H]3O)CC1O (stereo not given in full) | > 588 µM | 500 µM and > 588 µM |  | 500 µM |  | 500 µM | 405 µM and > 588 µM | 461 µM and > 588 µM | 478 µM and > 588 µM | 500 µM and > 588 µM |  | 500 µM | > 588 µM | 475 µM and > 588 µM | > 588 µM | 469 µM and > 588 µM | > 588 µM | 500 µM and > 588 µM | > 588 µM | 498 µM and > 588 µM
Brc1ccccc1C=NC12CC3CC(CC(C3)C1)C2 |  | > 100 µM |  | > 100 µM |  | > 100 µM |  | > 100 µM |  | > 100 µM |  | > 100 µM |  | > 100 µM |  | > 91.1 µM |  | > 100 µM |  | > 100 µM
Cc1nn(-c2ccccc2)c2nc3c(nc12)C1=NCCN1C(c1ccc(Cl)cc1)N3 (stereo not given) | 5.61 µM | 17.6 µM | 6.29 µM | 21 µM | 5.9 µM | 17.9 µM | 1.94 µM | 4.23 µM | 1.9 µM | 3.96 µM | 1.94 µM | 3.91 µM | 2.56 µM | 8.24 µM | 2.38 µM | 6.01 µM | 1.98 µM | 3.86 µM | 1.62 µM | 6.25 µM
O=C(O)c1ccccc1-c1ccccc1C(=O)Nc1ccc2c(c1)[nH]c(=O)c1ccccc12 |  | > 100 µM |  | > 100 µM |  | > 100 µM |  | > 100 µM |  | > 100 µM |  | > 100 µM |  | > 100 µM |  | > 100 µM |  | > 100 µM |  | > 100 µM
Cn1ccnc1C(=O)/C=C/c1ccc(CC(=O)Nc2ccc(F)cc2)cc1 | 2.89 µM | 13.5 µM | 5.71 µM | > 25 µM | 1.24 µM | 5.97 µM | 3.59 µM | 7.12 µM | 1.97 µM | 12 µM | 0.712 µM | 3.9 µM | 4.55 µM | 19.1 µM | 2.32 µM | 18.1 µM | 3.23 µM | 7.95 µM | 3.74 µM | > 25 µM
CCN(CC)CCCC(Cc1ccccc1)Nc1c2ccc(Cl)cc2nc2ccc(OC)cc12 (stereo not given) | 2.14 µM | 5.84 µM | 2.34 µM | 5.26 µM | 5 µM | 18.3 µM | 1.7 µM | 3.33 µM | 1.77 µM | 3.81 µM | 1.6 µM | 3.04 µM | 1.86 µM | 3.55 µM | 1.91 µM | 5.7 µM | 1.82 µM | 3.51 µM | 1.62 µM | 3.65 µM
NC1=CC(=O)c2nc3ccccc3c3ccnc1c23 | 4.26 µM | 22.1 µM | 2.39 µM | 18.5 µM | 0.495 µM | > 44.6 µM | 3.99 µM | 57.1 µM | 3.14 µM | > 100 µM | 0.219 µM | 4.22 µM | 0.19 µM | > 39.5 µM | 3.21 µM | > 100 µM | 0.342 µM | 26.7 µM | 0.552 µM | 23.5 µM
CC(C)n1c(=O)n(C)c2cnc3cc(F)c(-c4ccc(OCCCN5CCCCC5)nc4)cc3c21 | 11.9 µM | 40.2 µM | 14.9 µM | > 100 µM | 17.7 µM | > 100 µM | 8.38 µM | 22.9 µM | 14.3 µM | 42.3 µM | 4.13 µM | 16.6 µM | 3.99 µM | 16.4 µM | 5.47 µM | 41.5 µM | 14.6 µM | 31.6 µM | 4.24 µM | 18.1 µM
CCC(c1ccc2cc(O)ccc2c1)C(C)(C)C(=O)O (stereo not given) |  | > 100 µM |  | > 100 µM |  | > 100 µM |  | > 100 µM |  | > 100 µM |  | > 100 µM |  | > 100 µM |  | > 100 µM |  | > 100 µM |  | > 100 µM
CCCC(=O)Nc1ccc2c(c1)CN1C(=O)c3ccccc3C1=N2 |  | > 100 µM |  | > 100 µM |  | > 100 µM |  | > 100 µM |  | > 100 µM |  | > 100 µM |  | > 100 µM |  | > 100 µM |  | > 100 µM |  | > 100 µM
COc1ccc(CCN2CCC(Nc3nc4ccccc4n3Cc3ccc(F)cc3)CC2)cc1 | 1.56 µM | 2.95 µM | 2.02 µM | 4.52 µM | 1.94 µM | 3.65 µM | 1.77 µM | 3.25 µM | 1.68 µM | 5.14 µM | 1.38 µM | 2.79 µM | 1.65 µM | 3.26 µM | 1.67 µM | 4.71 µM | 1.72 µM | 3.15 µM | 1.24 µM | 2.54 µM
Cc1[nH]nc2ccc3nc(-c4ccc5[nH]ncc5c4)c4c(c3c12)CCCC4 | 1.97 µM | 17.8 µM | 1.15 µM | 13.2 µM | 1.05 µM | 12.2 µM | 1.62 µM | 8.44 µM | 0.494 µM | 8.79 µM | 1.22 µM | 11 µM | 2.74 µM | 10.5 µM | 1.92 µM | 10.1 µM | 0.604 µM | 13.3 µM | 1.52 µM | 7.28 µM
Cc1cc(C)c2nc3nc(C)cc(C)c3c(N)c2c1 | 5.38 µM | 21.6 µM | 4.02 µM | > 100 µM | 4.72 µM | 17.9 µM | 4.15 µM | 14.6 µM | 3.4 µM | 21.4 µM | 3.51 µM | 14.9 µM | 2.4 µM | 12 µM | 4.7 µM | 26.6 µM | 4.53 µM | 16.1 µM | 4.86 µM | 18.3 µM
O=C(CN1C(=O)S/C(=C\C(Cl)=C\c2ccccc2)C1=O)NCCc1ccc(O)cc1 | 2.28 µM | 6.63 µM | 2.97 µM | > 100 µM | 1.72 µM | 3.55 µM | 1.74 µM | 3.63 µM | 1.82 µM | 4.22 µM | 1.42 µM | 2.85 µM | 2.1 µM | 4.29 µM | 2.38 µM | > 100 µM | 1.65 µM | 4.11 µM | 1.05 µM | 6.64 µM
O=C(O)CP(=O)(O)O |  | > 100 µM |  | > 100 µM |  | > 100 µM |  | > 100 µM |  | > 100 µM |  | > 100 µM |  | > 100 µM |  | > 100 µM |  | > 100 µM |  | > 100 µM
CCCCCCCCCCCCCCCCCC(=O)OCC(COC1OC(CS(=O)(=O)O)C(O)C(O)C1O)OC(=O)CCCCCCCCCCCCCCCCC (stereo not given) |  | > 100 µM |  | > 100 µM |  | > 100 µM |  | > 100 µM |  | > 100 µM |  | > 100 µM |  | > 100 µM |  | > 100 µM |  | > 100 µM |  | > 100 µM
CSc1nc(C)c(Br)c(=O)n1C1OC(COC(C)=O)C(OC(C)=O)C(OC(C)=O)C1OC(C)=O (stereo not given) |  | > 100 µM and 44.2 µM | > 100 µM and 36 µM | > 100 µM |  | > 100 µM | > 52.8 µM and 18.6 µM | > 80.2 µM and 34.4 µM |  | > 100 µM |  | > 100 µM |  | 79.7 µM and 70.8 µM |  | > 100 µM |  | > 100 µM | 10.5 µM and 26.5 µM | 51.8 µM and 65.1 µM
O=C1NC(c2c(Cl)cccc2Cl)Nc2ccccc21 (stereo not given) |  | > 100 µM |  | > 100 µM |  | > 100 µM |  | > 100 µM |  | > 100 µM |  | > 100 µM |  | > 100 µM |  | > 100 µM |  | > 100 µM |  | 37.4 µM
CCN(CC)CCCCNc1ncc2cc(-c3cc(OC)cc(OC)c3)c(NC(=O)NC(C)(C)C)nc2n1 | 5.47 µM | 21.1 µM | 5.53 µM | 26.6 µM | 8.08 µM | 22.9 µM | 1.99 µM | 7.16 µM | 8.15 µM | 23 µM | 5.34 µM | 18.8 µM | 3.59 µM | 10.3 µM | 3.66 µM | 19.4 µM | 3.1 µM | 9.65 µM | 0.372 µM | 13.1 µM
